pEC50, pKd: −log10 of the molar value.
Experiments:
RXRα [1] = biological target: T1, RXRα (Homo sapiens, UniProt P19793); assay: RXR receptor transactivation assay; assay type: cell-based; settings: for Emax: read-out: % Eff RXR α transactivation; for pEC50: read-out: EC50 RXR α transactivation
T1 construct: expressed in transfected cells
T1 sequence (P19793 1-462): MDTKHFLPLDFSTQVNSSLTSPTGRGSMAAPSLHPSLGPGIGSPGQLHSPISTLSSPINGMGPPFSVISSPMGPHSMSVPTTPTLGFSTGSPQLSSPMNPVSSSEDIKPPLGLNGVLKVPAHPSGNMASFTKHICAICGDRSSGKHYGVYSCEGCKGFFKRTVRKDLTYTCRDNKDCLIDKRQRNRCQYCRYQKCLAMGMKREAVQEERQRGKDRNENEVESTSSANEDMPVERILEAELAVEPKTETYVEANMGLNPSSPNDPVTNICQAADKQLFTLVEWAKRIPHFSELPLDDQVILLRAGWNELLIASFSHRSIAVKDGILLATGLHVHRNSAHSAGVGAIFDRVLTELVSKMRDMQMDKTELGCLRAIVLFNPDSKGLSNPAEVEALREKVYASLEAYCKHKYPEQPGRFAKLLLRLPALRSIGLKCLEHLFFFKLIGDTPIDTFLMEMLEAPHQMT
Source text: The specification of U.S. Pat. No. 5,455,265 is hereby expressly incorporated by reference.
(§1) A holoreceptor transactivation assay and a ligand binding assay which measure the antagonist/agonist like activity of the compounds of the invention, or their ability to bind to the several retinoid receptor subtypes, respectively, are described in published PCT Application No. WO WO93/11755 (particularly on pages 30-33 and 37-41) published on Jun. 24, 1993, the specification of which is also incorporated herein by reference. A detailed experimental procedure for holoreceptor transactivations has been described by Heyman et al. Cell 68, 397-406, (1992); Allegretto et al. J. Biol. Chem. 268, 26625-26633, and Mangelsdorf et al. The Retinoids: Biology, Chemistry and Medicine, pp 319-349, Raven Press Ltd., New York, which are expressly incorporated herein by reference. The results obtained in this assay are expressed in EC50 numbers, as they are also in the chimeric receptor transactivation assay. The results of ligand binding assay are expressed in Kd numbers. (See Cheng et as. Biochemical Pharmacology Vol. 22 pp 3099-3108, expressly incorporated herein by reference.)

RXRβ [2] = biological target: T2, RXRβ (Homo sapiens, UniProt P28702); assay: RXR receptor transactivation assay; assay type: cell-based; settings: for Emax: read-out: % Eff RXR β transactivation; for pEC50: read-out: EC50 RXR β transactivation
T2 construct: expressed in transfected cells
T2 sequence (P28702 1-533): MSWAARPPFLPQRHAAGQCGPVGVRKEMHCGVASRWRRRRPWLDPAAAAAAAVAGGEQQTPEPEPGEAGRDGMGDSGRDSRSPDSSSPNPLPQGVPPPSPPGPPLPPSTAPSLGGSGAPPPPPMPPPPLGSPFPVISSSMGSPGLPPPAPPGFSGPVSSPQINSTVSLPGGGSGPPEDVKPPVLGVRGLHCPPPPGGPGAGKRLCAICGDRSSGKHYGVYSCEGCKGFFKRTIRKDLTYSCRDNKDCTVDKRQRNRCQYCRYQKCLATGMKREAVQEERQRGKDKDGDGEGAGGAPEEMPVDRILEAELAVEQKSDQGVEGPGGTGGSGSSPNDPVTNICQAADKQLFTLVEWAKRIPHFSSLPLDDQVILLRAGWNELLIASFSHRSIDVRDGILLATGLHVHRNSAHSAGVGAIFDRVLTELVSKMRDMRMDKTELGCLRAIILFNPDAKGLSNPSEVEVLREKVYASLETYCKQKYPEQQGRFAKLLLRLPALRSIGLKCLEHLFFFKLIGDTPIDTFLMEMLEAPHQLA
Source text: as §1

RXRγ [3] = biological target: T3, RXRγ (Homo sapiens, UniProt P48443); assay: RXR receptor transactivation assay; assay type: cell-based; settings: for Emax: read-out: % Eff RXR γ transactivation; for pEC50: read-out: EC50 RXR γ transactivation
T3 construct: expressed in transfected cells
T3 sequence (P48443 1-463): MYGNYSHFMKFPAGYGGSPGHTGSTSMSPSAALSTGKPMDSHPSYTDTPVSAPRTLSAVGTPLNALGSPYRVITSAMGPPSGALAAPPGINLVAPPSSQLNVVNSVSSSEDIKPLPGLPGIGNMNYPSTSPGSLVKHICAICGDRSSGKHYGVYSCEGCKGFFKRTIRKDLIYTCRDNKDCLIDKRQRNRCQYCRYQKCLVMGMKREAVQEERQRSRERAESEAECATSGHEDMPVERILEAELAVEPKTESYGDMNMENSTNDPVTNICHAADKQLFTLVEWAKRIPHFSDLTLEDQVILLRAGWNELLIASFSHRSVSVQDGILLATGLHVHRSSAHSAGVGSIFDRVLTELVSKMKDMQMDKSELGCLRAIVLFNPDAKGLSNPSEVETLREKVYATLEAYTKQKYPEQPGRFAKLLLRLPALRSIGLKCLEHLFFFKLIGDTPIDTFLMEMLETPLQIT
Source text: as §1

RXRα [4] = biological target: T1, RXRα; assay: ligand binding assay; settings: read-out: Kd RXR α binding
Source text: as §1

RXRγ [5] = biological target: T3, RXRγ; assay: ligand binding assay; settings: read-out: Kd RXR γ binding
Source text: as §1

RXRβ [6] = biological target: T2, RXRβ; assay: ligand binding assay; settings: read-out: Kd RXR β binding
Source text: as §1

| Emax (RXRα [1]) | Emax (RXRβ [2]) | pEC50 (RXRβ [2]) | Emax (RXRγ [3]) | pKd (RXRα [4]) | pKd (RXRγ [5]) | pEC50 (RXRα [1]) | pEC50 (RXRγ [3]) | pKd (RXRβ [6]) | SMILES |
| --- | --- | --- | --- | --- | --- | --- | --- | --- | --- |
| 147% | 152% | 10.22 | 156% | 10.30 | 8.14 |  |  |  | CCC1(c2cc(C(C)C)cc(C(C)C)c2)CC1/C=C/C(C)=C/C(=O)O (single isomer, unassigned; (+)) [Compound 7] |
| 93% | 80% | 8.37 | 86% | 10.52 | 8.43 | 8.05 | 8.89 |  | CCCC1(c2cc(C(C)(C)C)cc(C(C)(C)C)c2)CC1/C=C/C(C)=C/C(=O)O (single isomer, unassigned; (+)) [Compound 14] |
| 94% | 88% | 8.74 | 110% | 10.57 | 9.24 | 9.52 | 9.10 |  | CCCC1(c2ccc3c(c2)C(C(C)(C)C)=CCC3(C)C)CC1/C=C/C(C)=C/C(=O)O (single isomer, unassigned; (+)) [Compound 22] |
| 105% | 98% | 9.05 | 115% | 11.00 | 8.85 | 10.30 | 10.00 |  | CCCC1(c2ccc3c(c2)C(C(C)C)=CCC3(C)C)CC1/C=C/C(C)=C/C(=O)O (single isomer, unassigned; (+)) [Compound 34] |
| 103% | 111% | 9.34 | 96% | 9.68 | 8.51 | 10.30 | 9.85 |  | CC1=CC(C)(C)Oc2cc(C3(C)CC3/C=C/C(C)=C/C(=O)O)ccc21 (centres unmarked) [Compound 28] |
| 95% | 95% | 9.15 | 89% | 11.00 | 8.38 | 10.00 | 10.00 | 9.10 | CC(/C=C/[C@@H]1C[C@]1(C)c1ccc2c(c1)C(C(C)(C)C)=CCC2(C)C)=C\C(=O)O [Compound 57] |
| 109% | 109% | 9.52 | 108% | 9.15 | 8.52 | 10.00 | 10.00 | 8.22 | CC(/C=C/[C@@H]1C[C@]1(C)c1ccc2c(c1)C(C(C)C)=CCC2(C)C)=C\C(=O)O [Compound 64, 7(1-Isoproply-4,4-dimethyl-3,4-dihydronaphthalen-7-yl](6S,7S)-6,7-methano-3,7-dimethyl-hepta-2E,4E-dienoic acid] |
| 102% | 107% | 9.52 | 116% | 10.30 | 9.49 | 10.00 | 10.00 | 8.54 | CC(/C=C/[C@@H]1C[C@]1(C)c1ccc2c(c1)OC(C)(C)C=C2C(C)C)=C\C(=O)O [Compound 87] |
| 106% | 107% | 10.00 | 105% | 9.77 | 8.85 | 10.00 | 10.00 | 8.80 | CC(/C=C/[C@@H]1C[C@]1(C)c1ccc2c(c1)OC(C)(C)C=C2C(C)(C)C)=C\C(=O)O [Compound 88] |
| 110% | 99% | 10.00 | 112% | 9.72 | 8.85 | 10.00 | 10.00 | 9.22 | CCCCC1=CC(C)(C)Oc2cc([C@@]3(C)C[C@H]3/C=C/C(C)=C/C(=O)O)ccc21 [Compound 89] |
| 87% | 85% | 8.05 | 112% | 9.22 | 8.55 | 9.00 | 8.70 | 8.77 | CC(/C=C/[C@@H]1C[C@]1(C)c1cc(C(C)(C)C)cc(C(C)(C)C)c1)=C\C(=O)O [Compound 96, 7-(3,5-di-t-Butylphenyl)-(6S,7S)-6,7-methano-3,7-dimethyl-hepta-2E,4E-dienoic acid] |
